# Data taken from patent US20160002204A1 (Board of Regents, The University of Texas System, priority 2014, published 2016).
# What was measured:
# [1] = molecular target: T1, GLS1 (purified recombinant human GAC) (Homo sapiens, UniProt O94925); assay: GLS1 enzymatic activity assay (dual-coupled, Amplex UltraRed/resorufin); format: biochemical
# T1 sequence (O94925 55-598 isoform O94925-3 limits assumed): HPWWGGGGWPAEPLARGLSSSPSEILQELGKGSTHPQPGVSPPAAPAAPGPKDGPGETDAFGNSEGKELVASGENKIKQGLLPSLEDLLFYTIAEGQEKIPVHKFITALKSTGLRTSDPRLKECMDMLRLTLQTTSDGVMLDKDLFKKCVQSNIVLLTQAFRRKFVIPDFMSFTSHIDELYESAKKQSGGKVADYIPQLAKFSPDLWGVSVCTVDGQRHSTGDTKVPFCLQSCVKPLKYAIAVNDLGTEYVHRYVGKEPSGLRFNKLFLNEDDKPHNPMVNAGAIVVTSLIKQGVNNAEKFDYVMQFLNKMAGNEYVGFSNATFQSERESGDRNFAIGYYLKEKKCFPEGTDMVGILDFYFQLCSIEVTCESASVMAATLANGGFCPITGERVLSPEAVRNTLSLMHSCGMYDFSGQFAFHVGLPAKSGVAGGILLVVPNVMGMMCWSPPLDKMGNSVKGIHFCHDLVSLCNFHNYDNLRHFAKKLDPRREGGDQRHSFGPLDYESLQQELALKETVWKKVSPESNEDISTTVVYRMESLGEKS
# How it was run: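 GAC activity measured by coupling glutamate to glutamate oxidase and HRP, generating resorufin from Amplex UltraRed. Enzyme (2 nM) preincubated with 50 mM potassium phosphate 10 min at room temperature, then inhibitor 10 min; 1 mM glutamine substrate, 1% DMSO. Fluorescence 530/590 nm, kinetic or 20-min endpoint; IC50 from four-parameter logistic fit.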
# A549 cells = assay: A549 proliferation (viability) assay, Cell Titer Fluor, 72 hours; format: cell-based; conditions: Homo sapiens
# How it was run: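 A549 cells seeded at 1000 cells/well, left 24 h, then exposed to compound for 72 h at 37 °C, 5% CO2, final DMSO 0.5% (v/v). Viability read by Cell Titer Fluor fluorescence; EC50 from four-parameter logistic fit.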
Structure (SMILES),IC50 [1] [nM],EC50 (A549 cells) [nM]
"CC(C)(C)OC(=O)N1CCC(CC(=O)Nc2ccn(CCC(F)Cn3cc(C(=O)NCc4cccc(OC(F)(F)F)c4)nn3)c(=O)c2)C1 (stereo not shown) [Example 221, tert-butyl 3-{[(1-{3-fluoro-4-[4-({[3-(trifluoromethoxy)phenyl]methyl}carbamoyl)-1H-1,2,3-triazol-1-yl]butyl}-2-oxo-1,2-dihydropyridin-4-yl)carbamoyl]methyl}pyrrolidine-1-carboxylate]",< 100,< 100
"CC(C)(C)OC(=O)NCc1cccc(CC(=O)Nc2ccn(CCC(F)Cn3cc(C(=O)NCc4cccc(OC(F)(F)F)c4)nn3)c(=O)c2)c1 (stereo not shown) [Example 222, tert-butyl N-[(3-{[(1-{3-fluoro-4-[4-({[3-(trifluoro-methoxy)phenyl]methyl}carbamoyl)-1H-1,2,3-triazol-1-yl]butyl}-2-oxo-1,2-dihydropyridin-4-yl)carbamoyl]methyl}phenyl)methyl] carbamate]",< 100,100 to 500
"CC(C)(C)OC(=O)Nc1ccn(CCC(F)Cn2cc(C(=O)NCc3cccc(OC(F)(F)F)c3)nn2)c(=O)c1F (stereo not shown) [Example 226, tert-butyl N-(3-fluoro-1-{3-fluoro-4-[4-({[3-(trifluoro-methoxy)phenyl]methyl}carbamoyl)-1H-1,2,3-triazol-1-yl]butyl}-2-oxo-1,2-dihydropyridin-4-yl)carbamate]",< 100,< 100
"O=C(CN1CCC(F)C1)Nc1ccn(CCC(F)Cn2cc(C(=O)NCc3cccc(OC(F)(F)F)c3)nn2)c(=O)c1 (stereo not shown) [Example 227, 1-(2-fluoro-4-{4-[2-(3-fluoropyrrolidin-1-yl)acetamido]-2-oxo-1,2-dihydropyridin-1-yl}butyl)-N-{[3-(trifluoromethoxy)phenyl]methyl}-1H-1,2,3-triazole-4-carboxamide]",< 100,100 to 500
"O=C(CN1CC(F)(F)C1)Nc1ccn(CCC(F)Cn2cc(C(=O)NCc3cccc(OC(F)(F)F)c3)nn2)c(=O)c1 (stereo not shown) [Example 232, 1-(4-{4-[2-(3,3-difluoroazetidin-1-yl)acetamido]-2-oxo-1,2-dihydropyridin-1-yl}-2-fluorobutyl)-N-{[3-(trifluoromethoxy)phenyl]methyl}-1H-1,2,3-triazole-4-carboxamide]",< 100,100 to 500
"CC(C)(C)OC(=O)Nc1ccn(CCC(F)Cn2cc(C(=O)NCc3cc(Cl)ccc3F)nn2)c(=O)c1 (stereo not shown) [Example 233, tert-butyl N-{1-[4-(4-{[(5-chloro-2-fluorophenyl)methyl]carbamoyl}-1H-1,2,3-triazol-1-yl)-3-fluorobutyl]-2-oxo-1,2-dihydropyridin-4-yl}carbamate]",< 100,500 to 5000
"CC(C)(C)OC(=O)Nc1ccn(CCC(F)Cn2cc(C(=O)NCc3cccc(OC(F)(F)F)c3)nn2)c(=O)c1 (stereo not shown) [Example 234, tert-butyl N-(1-{3-fluoro-4-[4-({[3-(trifluoromethoxy)phenyl]methyl]carbamoyl)-1H-1,2,3-triazol-1-yl]butyl}-2-oxo-1,2-dihydropyridin-4-yl)carbamate]",< 100,100 to 500
"N#Cc1cccc(CC(=O)Nc2ccn(CCC(F)Cn3cc(C(=O)NCc4cccc(OC(F)(F)F)c4)nn3)c(=O)c2)c1 (stereo not shown) [Example 235, 1-(4-{4-[2-(3-cyanophenyl)acetamido]-2-oxo-1,2-dihydropyridin-1-yl}-2-fluorobutyl)-N-{[3-(trifluoromethoxy)phenyl]methyl}-1H-1,2,3-triazole-4-carboxamide]",< 100,500 to 5000
"O=C(Cc1cccc(N2CCOCC2)c1)Nc1ccn(CCC(F)Cn2cc(C(=O)NCc3cccc(OC(F)(F)F)c3)nn2)c(=O)c1 (stereo not shown) [Example 237, 1-[2-fluoro-4-(4-{2-[3-(morpholin-4-yl)phenyl]acetamido}-2-oxo-1,2-dihydropyridin-1-yl)butyl]-N-{[3-(trifluoromethoxy)phenyl]methyl}-1H-1,2,3-triazole-4-carboxamide]",< 100,100 to 500
"COc1ccc(CC(=O)Nc2ccn(CCC(F)Cn3cc(C(=O)NCc4cccc(OC(F)(F)F)c4)nn3)c(=O)c2)cn1 (stereo not shown) [Example 240, 1-(2-fluoro-4-{4-[2-(6-methoxypyridin-3-yl)acetamido]-2-oxo-1,2-dihydropyridin-1-yl}butyl)-N-{[3-(trifluoromethoxy)phenyl]methyl}-1H-1,2,3-triazole-4-carboxamide]",< 100,500 to 5000
"CC(C)(C)OC(=O)N[C@H]1CC[C@@H](CC(=O)Nc2ccn(CCC(F)Cn3cc(C(=O)NCc4cccc(OC(F)(F)F)c4)nn3)c(=O)c2)CC1 (stereo partly shown) [Example 241, tert-butyl N-[(1s,4s)-4-{[(1-{3-fluoro-4-[4-({[3-(trifluoromethoxy)phenyl]methyl}carbamoyl)-1H-1,2,3-triazol-1-yl]butyl}-2-oxo-1,2-dihydropyridin-4-yl)carbamoyl]methyl}cyclohexyl]carbamate]",< 100,< 100

# More lines, now with the values ahead:
IC50 [1] [nM],EC50 (A549 cells) [nM],Structure (SMILES)
< 100,< 100,"O=C(NCc1cccc(OC(F)(F)F)c1)c1cn(CC(F)CCn2ccc(NC(=O)[C@H](O)c3ccccc3)cc2=O)nn1 (stereo partly drawn) [Example 223, 1-(2-fluoro-4-{4-[(2R)-2-hydroxy-2-phenylacetamido]-2-oxo-1,2-dihydropyridin-1-yl}butyl)-N-{[3-(trifluoromethoxy)phenyl]methyl}-1H-1,2,3-triazole-4-carboxamide]"
< 100,< 100,"O=C(NCc1cccc(OC(F)(F)F)c1)c1cn(CC(F)CCn2ccc(NC(=O)[C@@H](O)c3ccccc3)cc2=O)nn1 (stereo partly drawn) [Example 224, 1-(2-fluoro-4-{4-[(2S)-2-hydroxy-2-phenylacetamido]-2-oxo-1,2-dihydropyridin-1-yl}butyl)-N-{[3-(trifluoromethoxy)phenyl]methyl}-1H-1,2,3-triazole-4-carboxamide]"
< 100,< 100,"O=C(CN1CCSCC1)Nc1ccn(CCC(F)Cn2cc(C(=O)NCc3cccc(OC(F)(F)F)c3)nn2)c(=O)c1 (stereo not shown) [Example 228, 1-(2-fluoro-4-{2-oxo-4-[2-(thiomorpholin-4-yl)acetamido]-1,2-dihydropyridin-1-yl}butyl)-N-{[3-(trifluoromethoxy)phenyl]methyl}-1H-1,2,3-triazole-4-carboxamide]"
100 to 500,500 to 5000,"CC(=O)N1CCN(CC(=O)Nc2ccn(CCC(F)Cn3cc(C(=O)NCc4cccc(OC(F)(F)F)c4)nn3)c(=O)c2)CC1 (stereo not shown) [Example 229, 1-(4-{4-[2-(4-acetylpiperazin-1-yl)acetamido]-2-oxo-1,2-dihydropyridin-1-yl}-2-fluorobutyl)-N-{[3-(trifluoromethoxy)phenyl]methyl}-1H-1,2,3-triazole-4-carboxamide]"
100 to 500,> 5000,"O=C(CN1CCS(=O)(=O)CC1)Nc1ccn(CCC(F)Cn2cc(C(=O)NCc3cccc(OC(F)(F)F)c3)nn2)c(=O)c1 (stereo not shown) [Example 231, 1-(4-{4-[2-(1,1-dioxo-1$l^6,4-thiomorpholin-4-yl)acetamido]-2-oxo-1,2-dihydropyridin-1-yl}-2-fluorobutyl)-N-{[3-(trifluoromethoxy)phenyl]methyl}-1H-1,2,3-triazole-4-carboxamide]"
< 100,500 to 5000,"O=C(Cc1cccnc1Cl)Nc1ccn(CCC(F)Cn2cc(C(=O)NCc3cccc(OC(F)(F)F)c3)nn2)c(=O)c1 (stereo not shown) [Example 236, 1-(4-{4-[2-(2-chloropyridin-3-yl)acetamido]-2-oxo-1,2-dihydropyridin-1-yl}-2-fluorobutyl)-N-{[3-(trifluoromethoxy)phenyl]methyl}-1H-1,2,3-triazole-4-carboxamide]"
< 100,100 to 500,"O=C(Cc1ccc(Cl)nc1)Nc1ccn(CCC(F)Cn2cc(C(=O)NCc3cccc(OC(F)(F)F)c3)nn2)c(=O)c1 (stereo not shown) [Example 238, 1-(4-{4-[2-(6-chloropyridin-3-yl)acetamido]-2-oxo-1,2-dihydropyridin-1-yl}-2-fluorobutyl)-N-{[3-(trifluoromethoxy)phenyl]methyl}-1H-1,2,3-triazole-4-carboxamide]"
< 100,< 100,"CC(C)(C)OC(=O)N[C@H]1CC[C@H](CC(=O)Nc2ccn(CCC(F)Cn3cc(C(=O)NCc4cccc(OC(F)(F)F)c4)nn3)c(=O)c2)CC1 (stereo partly shown) [Example 239, tert-butyl N-[(1r,4r)-4-{[(1-{3-fluoro-4-[4-({[3-(trifluoromethoxy)phenyl]methyl}carbamoyl)-1H-1,2,3-triazol-1-yl]butyl}-2-oxo-1,2-dihydropyridin-4-yl)carbamoyl]methyl}cyclo-hexyl]carbamate]"
< 100,100 to 500,"O=C(CC1CCN(CC(F)F)CC1)Nc1ccn(CCC(F)Cn2cc(C(=O)NCc3cccc(OC(F)(F)F)c3)nn2)c(=O)c1 (stereo not shown) [Example 242, 1-[4-(4-{2-[1-(2,2-difluoroethyl)piperidin-4-yl]acetamido}-2-oxo-1,2-dihydropyridin-1-yl)-2-fluorobutyl]-N-{[3-(trifluoromethoxy)phenyl]methyl}-1H-1,2,3-triazole-4-carboxamide]"
